Data reported in patent US9902725B2, “Heterocyclic derivatives as RORgamma modulators” (GENFIT, priority 2014, dated 2018).

These molecules were tested against T1, RORγt ligand-binding domain (RORγt-LBD) (Homo sapiens, UniProt P51449) (assay: Time-resolved FRET (TR-FRET) RORγt coactivator assay). Conditions: GST-RORγ-LBD, biotinylated RIP140 peptide, coactivator displacement.
T1 construct: 20 nM recombinantly expressed RORγ-LBD fused to GST
T1 sequence (P51449 269-508 limits assumed): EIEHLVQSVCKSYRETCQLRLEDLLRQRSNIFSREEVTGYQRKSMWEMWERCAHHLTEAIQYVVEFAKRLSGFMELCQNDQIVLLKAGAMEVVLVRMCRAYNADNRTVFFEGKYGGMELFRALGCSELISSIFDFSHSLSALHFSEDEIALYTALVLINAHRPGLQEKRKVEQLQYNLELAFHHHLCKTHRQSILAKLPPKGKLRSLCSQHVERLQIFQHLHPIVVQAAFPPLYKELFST
Assay type: biochemical

Row | SMILES | IC50
1 | O=C(O)CCc1c[nH]c2ncc(NC(=O)NC(c3ccccc3)c3ccccc3N3CCCCC3)cc12 (stereo not shown) [compound 95, 3-{5-[({phenyl[2-(piperidin-1-yl)phenyl]methyl}carbamoyl)amino]-1H-pyrrolo[2,3-b]pyridin-3-yl}propanoic acid] | 1000 to 10000 nM
2 | Cc1ccc(C(NC(=O)Cc2ccc3[nH]cc(CCC(=O)O)c3c2)c2ccc(C)s2)c(C)c1 (stereo not shown) [compound 101, 3-[5-({[(2,4-dimethylphenyl)(5-methylthiophen-2-yl)methyl]carbamoyl}methyl)-1H-indol-3-yl]propanoic acid] | < 1000 nM
3 | O=C(O)CCc1c[nH]c2ccc(CC(=O)NC(c3ccccc3)c3ccccc3-n3cccc3)cc12 (stereo not shown) [compound 107, 3-{5-[({phenyl[2-(1H-pyrrol-1-yl)phenyl]methyl}carbamoyl)methyl]-1H-indol-3-yl}propanoic acid] | < 1000 nM
4 | CN(C)Cc1ccccc1C(NC(=O)Cc1ccc2[nH]cc(CCC(=O)OC(C)(C)C)c2c1)c1ccccc1 (stereo not shown) [compound 121, tert-butyl 3-(5-{[({2-[(dimethylamino)methyl]phenyl}(phenyl)methyl)carbamoyl]methyl}-1H-indol-3-yl)propanoate] | 1000 to 10000 nM
5 | O=C(O)CCc1c[nH]c2ccc(CC(=O)NC3(c4ccccc4N4CCCC4)CCCC3)cc12 [compound 130, 3-{5-[({1-[2-(pyrrolidin-1-yl)phenyl]cyclopentyl}carbamoyl)methyl]-1H-indol-3-yl}propanoic acid] | < 1000 nM
6 | Cc1ccc(C(NC(=O)Cc2ccc3[nH]cc(CCC(=O)O)c3c2)c2ncccn2)c(N2CCCCC2)c1 (stereo not shown) [compound 132, 3-{5-[({[4-methyl-2-(piperidin-1-yl)phenyl](pyrimidin-2-yl)methyl}carbamoyl)methyl]-1H-indol-3-yl}propanoic acid] | < 1000 nM
7 | Cc1ccc(C(CC(C)C)NC(=O)Cc2ccc3[nH]cc(CCC(=O)O)c3c2)c(N(C)C)c1 (stereo not shown) [compound 134, 3-{5-[({1-[2-(dimethylamino)-4-methylphenyl]-3-methylbutyl}carbamoyl)methyl]-1H-indol-3-yl}propanoic acid] | < 1000 nM
8 | Cc1cnc(C(NC(=O)Cc2ccc3[nH]cc(CCC(=O)O)c3c2)c2ccccc2N2CCCCC2)s1 (stereo not shown) [compound 154, 3-[5-({[(5-methyl-1,3-thiazol-2-yl)[2-(piperidin-1-yl)phenyl]methyl]carbamoyl}methyl)-1H-indol-3-yl]propanoic acid] | < 1000 nM
9 | Cc1ncc(C(NC(=O)Cc2ccc3[nH]cc(CCC(=O)O)c3c2)c2ccccc2N2CCCCC2)s1 (stereo not shown) [compound 156, 3-[5-({[(2-methyl-1,3-thiazol-5-yl)[2-(piperidin-1-yl)phenyl]methyl]carbamoyl}methyl)-1H-indol-3-yl]propanoic acid] | 1000 to 10000 nM
10 | Cc1ccc(C(NC(=O)Cc2ccc3[nH]cc(CCC(=O)O)c3c2)C2CC2)c2ccccc12 (stereo not shown) [compound 164, 3-[5-({[cyclopropyl(4-methylnaphthalen-1-yl)methyl]carbamoyl}methyl)-1H-indol-3-yl]propanoic acid] | < 1000 nM
11 | O=C(O)CCc1c[nH]c2ccc(CC(=O)NC(c3ccccc3)c3cccc4cc[nH]c34)cc12 (stereo not shown) [compound 168, 3-[5-({[1H-indol-7-yl(phenyl)methyl]carbamoyl}methyl)-1H-indol-3-yl]propanoic acid] | 1000 to 10000 nM
12 | Cn1ccc2cccc(C(NC(=O)Cc3ccc4[nH]cc(CCC(=O)O)c4c3)c3ccccc3)c21 (stereo not shown) [compound 170, 3-[5-({[(1-methyl-1H-indol-7-yl)(phenyl)methyl]carbamoyl}methyl)-1H-indol-3-yl]propanoic acid] | < 1000 nM

Now from value to molecule:

Row | IC50 | SMILES
13 | < 1000 nM | O=C(O)CCc1c[nH]c2ccc(CC(=O)NC(c3ccccc3)c3ccccc3N3CCCC3)cc12 (stereo not shown) [compound 79, 3-{5-[({phenyl[2-(pyrrolidin-1-yl)phenyl]methyl}carbamoyl)methyl]-1H-indol-3-yl}propanoic acid]
14 | < 1000 nM | Cc1ccc(C(NC(=O)Cc2ccc3[nH]cc(CCC(=O)O)c3c2)c2ccccc2)c(N2CCOCC2)c1 (stereo not shown) [compound 81, 3-{5-[({[4-methyl-2-(morpholin-4-yl)phenyl](phenyl)methyl}carbamoyl)methyl]-1H-indol-3-yl}propanoic acid]
15 | < 1000 nM | COc1ccc(C(NC(=O)Cc2ccc3[nH]cc(CCC(=O)O)c3c2)c2ccccc2)c(C)c1 (stereo not shown) [compound 83, 3-[5-({[(4-methoxy-2-methylphenyl)(phenyl)methyl]carbamoyl}methyl)-1H-indol-3-yl]propanoic acid]
16 | < 1000 nM | O=C(O)Cc1c[nH]c2ccc(CC(=O)NC(c3ccccc3)c3ccc(Cl)cc3N3CCCC3)cc12 (stereo not shown) [compound 85, 2-{5-[({[4-chloro-2-(pyrrolidin-1-yl)phenyl](phenyl)methyl}carbamoyl)methyl]-1H-indol-3-yl}acetic acid]
17 | < 1000 nM | O=C(O)Cc1c[nH]c2ccc(CC(=O)NC(c3ccccc3)c3ccc(C(F)(F)F)cc3N3CCCC3)cc12 (stereo not shown) [compound 89, 2-{5-[({phenyl[2-(pyrrolidin-1-yl)-4-(trifluoromethyl)phenyl]methyl}carbamoyl)methyl]-1H-indol-3-yl}acetic acid]
18 | < 1000 nM | O=C(O)CCc1c[nH]c2ccc(CC(=O)NC(c3ccccc3)c3ccc(F)cc3N3CCCC3)cc12 (stereo not shown) [compound 93, 3-{5-[({[4-fluoro-2-(pyrrolidin-1-yl)phenyl](phenyl)methyl}carbamoyl)methyl]-1H-indol-3-yl}propanoic acid]
19 | < 1000 nM | COc1cc(C)ccc1C(NC(=O)Cc1ccc2[nH]cc(CCC(=O)O)c2c1)c1ccccc1 (stereo not shown) [compound 99, 3-[5-({[(2-methoxy-4-methylphenyl)(phenyl)methyl]carbamoyl}methyl)-1H-indol-3-yl]propanoic acid]
20 | 1000 to 10000 nM | Cc1ccc(C(NC(=O)Cc2ccc3[nH]cc(CCC(=O)O)c3c2)c2ccccc2)c(N2CCN(C)CC2)c1 (stereo not shown) [compound 103, 3-{5-[({[4-methyl-2-(4-methylpiperazin-1-yl)phenyl](phenyl)methyl}carbamoyl)methyl]-1H-indol-3-yl}propanoic acid]
21 | < 1000 nM | CC(C)NC(=O)CCc1c[nH]c2ccc(CC(=O)NC(c3ccccc3)c3ccccc3N3CCCCC3)cc12 (stereo not shown) [compound 118, 3-{5-[({phenyl[2-(piperidin-1-yl)phenyl]methyl}carbamoyl)methyl]-1H-indol-3-yl}-N-(propan-2-yl)propanamide]
22 | 1000 to 10000 nM | O=C(O)CCc1c[nH]c2ccc(CC(=O)NC(c3ccccc3)c3ccccc3N3CCCC(O)C3)cc12 (stereo not shown) [compound 124, 3-{5-[({[2-(3-hydroxypiperidin-1-yl)phenyl](phenyl)methyl}carbamoyl)methyl]-1H-indol-3-yl}propanoic acid]
23 | < 1000 nM | O=C(O)CCc1c[nH]c2ccc(CC(=O)NC(c3ccccc3)c3ccccc3N3CC=CCC3)cc12 (stereo not shown) [compound 128, 3-{5-[({phenyl[2-(1,2,3,6-tetrahydropyridin-1-yl)phenyl]methyl}carbamoyl)methyl]-1H-indol-3-yl}propanoic acid]
24 | 1000 to 10000 nM | O=C(O)Cc1c[nH]c2ccc(CC(=O)NC(c3ccccc3)c3cc(Cl)ccc3N3CCCCC3)cc12 (stereo not shown) [compound 166, 2-{5-[({[5-chloro-2-(piperidin-1-yl)phenyl](phenyl)methyl}carbamoyl)methyl]-1H-indol-3-yl}acetic acid]
25 | 1000 to 10000 nM | Cc1cccc(CC(NC(=O)Cc2ccc3[nH]cc(CCC(=O)O)c3c2)c2ccccc2N2CCCCC2)c1 (stereo not shown) [compound 176, 3-[5-({[2-(3-methylphenyl)-1-[2-(piperidin-1-yl)phenyl]ethyl]carbamoyl}methyl)-1H-indol-3-yl]propanoic acid]
